One may read the mortality as the percentage killed.

Where two headings read alike, the source gives them in different places.

The source of these data is patent US20100196430A1, “Controlled-released agricultural chemical formulation” (priority 2004, published 2010).

Assay type in all cases: in vivo
Assay [1] concerns yellow striped flea beetles. Briefly: Test of use as a seed treatment agent by combining with synthetic pyrethroids (rapeseed). Particulars: Inoculation 18 days after seeding; for No. of plant damage scars/3 plants, Average / No. of plant damage scars/3 plants, Repeat A / No. of plant damage scars/3 plants, Repeat B: 3 days in cage, 500 g of each active per 100 kg of rapeseed seeds; for Control rate: relative to untreated group. As for the experimental part: Wettable powder 2 obtained in Example 20 was dispersed in 2.8 ml of a solution (sticker solution), in which 5% by weight of polyvinyl alcohol (Gohsenol GL05S, Nippon Synthetic Chemical) and 1% by weight of a surfactant in the form of sodium lignin sulfonate ([…] RX-B, Takemoto Oil & Fat) were dissolved in 94% by weight of water, so as to contain […] of acetamiprid, 0.35 ml of this dispersion were placed in a vinyl bag provided with a zipper containing 8 g of rapeseed seeds, immediately after which the zipper was closed followed by mixing by shaking vigorously for 30 seconds to adhere the chemical to the rapeseed seeds. The seeds were then spread out in a thin layer in a vat and air-dried overnight at room temperature to obtain rapeseed seeds adhered with 500 g of acetamiprid per 100 kg of seeds.
1 g of cypermethrin wettable powder (active ingredient: […]) was dispersed in 1.3 ml of distilled water, and 0.65 ml of this dispersion (20 mg as cypermethrin) were placed in a vinyl bag provided with a zipper containing 8 g of rapeseed seeds adhered with 500 g of acetamiprid per 100 kg of seeds, immediately after which the zipper was closed followed by mixing by shaking vigorously for 30 seconds to adhere the chemical to the rapeseed seeds. The seeds were then spread out in a thin layer in a vat and air-dried for 1 to 2 hours at room temperature followed by again placing in a vinyl bag provided with a zipper, adding 0.65 ml of the aforementioned dispersion and repeating the same procedure. These seeds were then spread out in a thin layer in a vat followed by allowing to air dry overnight at room temperature to obtain rapeseed seeds adhered with 500 g of cypermethrin and 500 g of acetamiprid per 100 kg of seeds.
In addition, wettable powder 2 obtained in Example 20 was dispersed in 1.1 g of bifenthrin SC (active ingredient: 7.2% by weight) so as to contain 80 mg of acetamiprid, and 0.55 ml of this dispersion (40 mg as bifenthrin and 40 mg of acetamiprid) were placed in a vinyl bag provided with a zipper containing 8 g of rapeseed seeds, followed immediately by mixing by shaking vigorously for 30 seconds to adhere the chemical to the seeds. The seeds were then spread out in a thin layer in a vat and air-dried overnight at room temperature to obtain rapeseed seeds adhered with 500 g of bifenthrin and 500 g of acetamiprid per 100 kg of seeds.
The resulting seeds were planted in a No. 2 flower pot containing alluvial soil and cultivated in a greenhouse. Eighteen days after seeding, rapeseed seedlings were transferred to a cage in which 100 adult yellow striped flea beetles had been released, and after allowing to stand for 3 days, the number of plant damage scars caused by the adult yellow striped flea beetles was counted for three plants in each test group. For the control, similar tests were carried out in the case of treating with 500 g of wettable powder 2, cypermethrin or bifenthrin alone per 100 kg of seeds, and in the case of non-treatment. Control rate (%)=((no. of scars of untreated group−no. of scars of treated group)/(no. of scars of untreated group))×100.

Assay [2] relates to yellow striped flea beetles. The experiment in a line: Test of use as a cell tray drench treatment agent (Chinese cabbage). As to conditions: for No. of plant damage scars/4 plants: counted 6 days after release. As for the experimental part: 3.57 g of wettable powder 2 obtained in Example 20 were dispersed in 1 liter of water to prepare a chemical liquid. 0.5 ml of chemical liquid per plant were dropped onto Chinese cabbage seedlings at the 4 to 4.5 leaf stage cultured in cell trays from above using a pipette. On the day following chemical treatment, the treated seedlings were planted in No. 6 flower pots containing Kuroboku soil and cultivated in a greenhouse. Each pot was covered with a cylindrical cage at 2, 14 and 28 days after planting, 10 adult yellow striped flea beetles were released inside the cages, and the numbers of plant damage scars caused by the adult yellow striped flea beetles were counted for four pots in each test group 6 days after releasing the insect pests. For the control, similar tests were carried out in the case of treating with commercially available bifenthrin SC and in the case of non-treatment.

A further assay relates to Nephotettix cincticeps. The experiment in a line: Test of use as a paddy treatment agent by seedling box drench treatment. Particulars: for mortality at 0.03 ppm / mortality at 0.08 ppm / mortality at 0.12 ppm: Nephotettix cincticeps, soil, read-out: Insect mortality rate. On the procedure: Wettable powder 4 obtained in Example 22 was diluted with water to a predetermined concentration to prepare a chemical liquid. 10 ml per tray of the chemical liquid was dropped onto the surface of soil containing seedlings having a height of about 10 cm cultivated in small plastic trays filled with granular planting soil using a pipette. Following chemical treatment, the trays were covered with a cylindrical cage and 6 two-instar Nephotettix cincticeps were released inside followed by counting the number of […] at 3 and 7 days after releasing the insect pests. For the control, similar tests were carried out for the case of treating with imidacloprid, and in the case of non-treatment. The control imidacloprid was sprayed onto the plants after adjusting to 5% by weight in dimethylformamide containing 1.5% by weight of Tween 20 and diluting with water.
Corrected insecticidal rate (%)=((survival rate in untreated group−survival rate in treated group)/survival rate in untreated group)×100

On to `Cc1c(COC(=O)[C@@H]2[C@H](/C=C(\Cl)C(F)(F)F)C2(C)C)cccc1-c1ccccc1` (racemic) [Bifenthrin, bifenthrin], for which the “No. of plant damage scars/3 plants, Average” value in assay [1] is on record as 270. In addition, the “No. of plant damage scars/3 plants, Repeat A” value in assay [1] is listed as 306. Further, the “No. of plant damage scars/3 plants, Repeat B” value in assay [1] turned out to be 234. For the same compound, the Control rate in assay [1] was 3.2%; in assay [2] (After 2 days), 87.1%; in assay [2] (After 14 days), 70.6%; in assay [2] (After 28 days) it was 40.7%. The “No. of plant damage scars/4 plants” value in assay [2] (beetles released After 2 days from planting, 0.5 ml of chemical liquid per plant) came out at 4; in assay [2] (beetles released After 14 days from planting), 103; in assay [2] (beetles released After 28 days from planting) it was 934.

Turning to `CC1(C)C(C=C(Cl)Cl)C1C(=O)OC(C#N)c1cccc(Oc2ccccc2)c1` (centres unmarked) [Cypermethrin, cypermethrin], in assay [1], the “No. of plant damage scars/3 plants, Average” value worked out at 269; the “No. of plant damage scars/3 plants, Repeat A” value is on record as 296; the “No. of plant damage scars/3 plants, Repeat B” value turned out to be 241; the Control rate is listed as 3.6%.

With `O=[N+]([O-])NC1=NCCN1Cc1ccc(Cl)nc1` [Imidacloprid, imidacloprid], the Corrected insecticidal rate with Nephotettix cincticeps (Concentration 0.03 ppm, After 3 days) worked out at 83%; with Nephotettix cincticeps (Concentration 0.03 ppm, After 7 days), 100%; with Nephotettix cincticeps (Concentration 0.08 ppm, After 3 days) it was 63%; in the assay on Nephotettix cincticeps (Concentration 0.08 ppm, After 7 days), 83%; in the assay with Nephotettix cincticeps (Concentration 0.12 ppm, After 3 days), 100%; in the assay with Nephotettix cincticeps (Concentration 0.12 ppm, After 7 days), 100%. The mortality at 0.03 ppm in the assay with Nephotettix cincticeps (72 h, Concentration 0.03 ppm, After 3 days) came out at 83%; in the assay on Nephotettix cincticeps (168 h, Concentration 0.03 ppm, After 7 days) it was 100%. The mortality at 0.08 ppm in the assay on Nephotettix cincticeps (72 h, Concentration 0.08 ppm, After 3 days) was 63%; in the assay on Nephotettix cincticeps (168 h, Concentration 0.08 ppm, After 7 days), 83%. The mortality at 0.12 ppm in the assay with Nephotettix cincticeps (72 h, Concentration 0.12 ppm, After 3 days) came out at 100%; with Nephotettix cincticeps (168 h, Concentration 0.12 ppm, After 7 days) it was 100%.
